The results in this text go back to patent US20180064755A1, “COMPOSITIONS AND METHODS FOR TREATING DRUG ADDICTION” (priority 2015, published 2018).

SMILES strings stand for the structures.

For this test, the system named is codeine addiction. Description: Blind trial, rubidium chloride to treat codeine addiction. In kind it is in vivo, human. The method, then: The trial below was a blind trial with 300 mg of rubidium chloride taken once per day administered in a glass of water in the morning by a person of 90 kg; and a placebo being taken by a person of 66 kg, both of whom were addicted to codeine
The trial was undertaken with the recommendation by doctors not to proceed too quickly and to eat potassium rich foods, especially at night; The most difficult aspect was to stop the craving in the evening—a solution for people who cannot stop the craving at night would be to split the dosage of the 300 mg of Rubidium Chloride and take half in the morning and half late in the afternoon.
The aim of this trial was to stop the craving for codeine with the aid of the compound and use the enhanced energy and stimulation supplied from the compound that was tested to change addiction habits.
The trial was for 300 mg of Rubidium Chloride taken once per day taken in a glass of water in the morning in this blind study and a placebo of powdered sugar taken once per day taken in a glass of water in the morning.

The mark [1] stands for this setting: 90 kg male, 300 mg once per day, self-report.

On to `[Cl-].[Rb+]` [rubidium chloride], for which the craving for codeine result (90 kg male addicted to codeine, 300 mg once per day in a glass of water in the morning, self-report) is “less craving for the drug than normal even after the first day”. Moreover, under setting [1], the “energy and activity during the day” value was “much more energy than before”; the “stimulation from the medication” value is reported as “very, very strong”. The “outcome of codeine addiction” value (90 kg male, 300 mg once per day, two month trial) is “lost the addiction to codeine”.
